Data taken from PMC9278454, “Dyhidro-β-agarofurans natural and synthetic as acetylcholinesterase and COX inhibitors: interaction with the peripheral anionic site (AChE-PAS), and anti-inflammatory potentials” (Journal of Enzyme Inhibition and Medicinal Chemistry, 2022).
Read-outs that look alike come from different tables or passages of the source.

Columns and labels:
ovine COX-1 = target: T1, ovine COX-1 (Ovis aries, UniProt P05979); assay: COX Inhibitor Screening Assay kit, COX-1; format: biochemical
T1 construct: purchased 560131
T1 sequence (P05979 25-600): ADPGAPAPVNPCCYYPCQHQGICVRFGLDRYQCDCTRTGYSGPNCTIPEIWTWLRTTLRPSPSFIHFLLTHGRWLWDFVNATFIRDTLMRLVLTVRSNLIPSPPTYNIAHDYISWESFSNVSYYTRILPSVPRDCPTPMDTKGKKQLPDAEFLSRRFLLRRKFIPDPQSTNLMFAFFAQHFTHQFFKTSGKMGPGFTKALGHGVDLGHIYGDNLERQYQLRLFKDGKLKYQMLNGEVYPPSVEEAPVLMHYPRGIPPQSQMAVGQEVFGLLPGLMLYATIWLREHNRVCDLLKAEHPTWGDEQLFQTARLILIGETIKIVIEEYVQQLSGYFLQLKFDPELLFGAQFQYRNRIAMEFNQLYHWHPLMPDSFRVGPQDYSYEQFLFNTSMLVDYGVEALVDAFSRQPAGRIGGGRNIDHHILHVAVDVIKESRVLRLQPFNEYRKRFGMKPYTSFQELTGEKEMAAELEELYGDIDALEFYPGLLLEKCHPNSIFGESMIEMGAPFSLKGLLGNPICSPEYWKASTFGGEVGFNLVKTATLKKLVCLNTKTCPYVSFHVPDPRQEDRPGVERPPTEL

human recombinant COX-2 = target: T2, human recombinant COX-2 (Homo sapiens, UniProt P35354); assay: biochemical; format: biochemical; details: for IC50: average of 3 independent runs, read-out: COX-2 IC50 (µM)±SE
T2 construct: purchased 560131
T2 sequence (P35354 18-604): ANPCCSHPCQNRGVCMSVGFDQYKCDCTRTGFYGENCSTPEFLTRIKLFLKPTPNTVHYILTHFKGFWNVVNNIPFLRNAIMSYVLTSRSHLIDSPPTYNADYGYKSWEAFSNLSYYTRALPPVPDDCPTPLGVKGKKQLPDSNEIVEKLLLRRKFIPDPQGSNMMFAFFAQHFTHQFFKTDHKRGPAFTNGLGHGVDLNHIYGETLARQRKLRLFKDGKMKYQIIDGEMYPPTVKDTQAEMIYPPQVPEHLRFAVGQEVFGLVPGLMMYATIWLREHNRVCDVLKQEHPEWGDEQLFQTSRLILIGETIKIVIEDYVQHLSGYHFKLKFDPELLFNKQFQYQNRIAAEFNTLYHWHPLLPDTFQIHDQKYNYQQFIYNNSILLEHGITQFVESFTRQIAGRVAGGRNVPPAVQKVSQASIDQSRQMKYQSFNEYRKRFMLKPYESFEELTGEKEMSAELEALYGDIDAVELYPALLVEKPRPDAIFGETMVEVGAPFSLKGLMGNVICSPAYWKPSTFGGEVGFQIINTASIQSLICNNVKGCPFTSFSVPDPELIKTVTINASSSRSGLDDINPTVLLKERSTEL

PAS of EeAChE = PAS of EeAChE (Electrophorus electricus, UniProt O42275); assay: Propidium iodide displacement from the PAS of AChE (fluorescence); format: binding; details: EeAChE 7 µM, propidium iodide 8 µM; for % Displacement of propidium iodide 290 µM: compound 290 µM; for % Displacement of propidium iodide 340 µM: compound 340 µM
Method: The ability of compounds to competitively displace propidium iodide was evaluated by a fluorescence method[43]. […] Donepezil was used as reference compound. The blank contained propidium iodide of the same concentration in 1 mM Tris-HCl buffer pH 8.0. The measurements were carried out in triplicate on a microplate reader Perkin Elmer VictorX2 (Perkin Elmer, Singapur).

AChE [1] = target: T3, AChE (Electrophorus electricus, UniProt O42275); assay: biochemical
Tc-AChE = assay: Kinetic characterisation of AChE inhibition (Lineweaver-Burk); format: biochemical, Torpedo californica
Method: The rate of enzyme activity was measured at eight different concentrations of substrate acetylthiocholine iodide (ATC).
Data analysis was carried out with SigmaPlot v10.0.

AChE [2] = target: T3, AChE; details: read-out: AChE IC50 (µM)±SE; average of 3 independent runs
[3] = selectivity index, COX-1 IC50 / COX-2 IC50
[4] = read-out: COX-1 IC50 (µM)±SE, average of 3 independent runs

T3 sequence (O42275 24-633): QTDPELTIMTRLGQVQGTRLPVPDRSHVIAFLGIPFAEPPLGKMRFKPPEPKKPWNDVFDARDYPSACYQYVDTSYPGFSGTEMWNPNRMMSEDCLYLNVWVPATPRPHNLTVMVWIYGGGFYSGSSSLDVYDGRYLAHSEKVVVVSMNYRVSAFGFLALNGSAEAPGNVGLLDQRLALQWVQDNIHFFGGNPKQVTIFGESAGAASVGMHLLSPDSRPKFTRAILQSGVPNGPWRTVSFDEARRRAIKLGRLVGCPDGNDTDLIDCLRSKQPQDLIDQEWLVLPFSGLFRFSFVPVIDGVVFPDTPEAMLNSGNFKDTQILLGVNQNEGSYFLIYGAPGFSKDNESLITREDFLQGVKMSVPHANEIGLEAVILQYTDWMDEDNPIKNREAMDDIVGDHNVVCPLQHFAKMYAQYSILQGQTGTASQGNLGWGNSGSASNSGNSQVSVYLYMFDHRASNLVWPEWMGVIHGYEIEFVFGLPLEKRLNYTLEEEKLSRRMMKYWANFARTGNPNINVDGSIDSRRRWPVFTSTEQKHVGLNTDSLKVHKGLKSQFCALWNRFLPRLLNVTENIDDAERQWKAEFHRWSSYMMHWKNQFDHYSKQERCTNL
PAS of EeAChE, sequence (O42275 24-633): as above

| SMILES | IC50 (ovine COX-1) [µM] | SI(COX-1/COX-2) (human recombinant COX-2) | IC50 (human recombinant COX-2) [µM] | % Displacement of propidium iodide 290 µM (PAS of EeAChE) [%] | % Displacement of propidium iodide 340 µM (PAS of EeAChE) [%] | IC50 (AChE [1]) [µM] | Mode of AChE inhibition (Tc-AChE; Lineweaver-Burk plots, eight concentrations of substrate ATC) | Km (Tc-AChE; unchanged at increasing concentrations of the inhibitor, substrate ATC) [µM] | SI(COX-1/COX-2) (human recombinant COX-2; [3]) | IC50 (ovine COX-1; [4]) [µM] | IC50 (AChE [2]) [µM] |
| --- | --- | --- | --- | --- | --- | --- | --- | --- | --- | --- | --- |
| CC(=O)O[C@@H]1[C@H](OC(=O)c2ccccc2)[C@@]2(C)[C@@H](OC(=O)c3ccccc3)C[C@@H]3[C@@H](OC(C)=O)[C@]2(OC3(C)C)[C@@](C)(O)[C@H]1OC(C)=O [Compound 11] | 13.08 ± 0.02 | 145.33 | 0.09 ± 0.005 | 12.1 ± 0.7 | 13.4 ± 0.2 | 30 ± 0.06 |  |  |  |  |  |
| CC(=O)OC[C@@]12[C@@H](OC(C)=O)CC[C@@H](C)[C@]13OC(C)(C)[C@H](C[C@@H]2OC(=O)c1ccccc1)[C@H]3OC(C)=O [Compound 9, 1α,6β,14-triacetoxy-9β-benzyloxydihydro-β-agarofuran] | 8.69 ± 0.03 | 124.14 | 0.07 ± 0.004 |  |  | 695 ± 0.001 |  |  |  |  |  |
| CC1(C)OC23CC1CCC2(C)CCC(OC(=O)c1ccco1)C3CO (stereo not drawn) [Compound 6, 3α-furoyloxy-15-hydroxydihydro-β-agarofuran] | 12.69 ± 0.035 | 97.61 | 0.13 ± 0.003 |  |  | 32 ± 0.006 |  |  |  |  |  |
| CC1(C)OC23CC1CCC2(C)CCC(O)C3(C)O (stereo not drawn) [Compound 4, 3α,4α-dihydroxydihydro-β-agarofuran] | 14.21 ± 0.035 | 37.39 | 0.38 ± 0.007 | 13.9 ± 0.3 | 17.6 ± 0.5 | 17 ± 0.016 | non-competitive inhibitor | 110 |  |  |  |
| CC(=O)OC[C@]12[C@@H](OC(=O)c3ccccc3)[C@H](OC(C)=O)[C@@H]3[C@@H](OC(=O)c4ccccc4)[C@]1(OC3(C)C)[C@@](C)(O)[C@H](OC(C)=O)[C@H](OC(C)=O)[C@@H]2OC(C)=O [Compound 12, 1α,2α,3α,8α,14-pentaacetoxy-6β,9β-dibenzyloxy-4β-hydroxidihydro-β-agarofuran] | 14.2 ± 0.2 |  | 0.84 ± 0.012 |  |  |  |  |  | 16.92 |  |  |
| CC(=O)O[C@H]1CC[C@](C)(O)[C@]23OC(C)(C)[C@H](C[C@H](OC(=O)c4ccoc4)[C@]12C)[C@H]3OC(=O)c1ccoc1 [Compound 8, 1α-Acetoxy-6β,9β-difuroyloxy-4β-hydroxydihydro-β-agarofuran] |  | 264.75 | 0.04 ± 0.007 |  |  |  |  |  |  | 10.59 ± 0.02 | 738 ± 0.007 |
| CC(=O)OC1CCC2(C)CCC3CC2(OC3(C)C)C1(C)O (stereo not drawn) [Compound 5, 3α-acetoxy-4α-hydroxydhydro-β-agarofuran] | 13.08 ± 0.02 | 32.7 | 0.4 ± 0.0014 |  |  | 43 ± 0.015 |  |  |  |  |  |
| Cc1ccc(C(C)C)cc1O [Carvacrol, reference compound] |  |  |  |  |  | 45 ± 0.031 |  |  |  |  |  |
| CC(=O)O[C@@H]1[C@H]2[C@@H](O)[C@H](OC(=O)c3ccccc3)[C@]3(C)[C@@H](O)CC[C@@H](C)[C@@]13OC2(C)C [Compound 13] | 11.36 ± 0.035 | 103.27 | 0.11 ± 0.007 |  |  | 500 ± 0.03 |  |  |  |  |  |
| CC1=CCC[C@@]2(C)CC[C@@H]3C[C@]12OC3(C)C [Compound 3, α-agarofuran] | 11.36 ± 0.035 | 66.82 | 0.17 ± 0.002 | 12.2 ± 0.2 | 15.8 ± 0.5 | 26 ± 0.012 |  |  |  |  |  |
| CC(=O)O[C@@H]1[C@@H]2[C@@H](OC(C)=O)[C@]3(OC2(C)C)[C@H](C)CC[C@H](O)[C@@]3(C)[C@H]1OC(=O)c1ccoc1 [Compound 10, 6β,8α-diacetoxy-9β-furoyloxy-1α-hydroxydihydro-β-agarofuran] |  | 47.37 | 0.29 ± 0.0003 |  |  |  |  |  |  | 13.74 ± 0.1 | 740 ± 0.045 |
| CC1(C)OC23CC1CCC2(C)CCC(OC(=O)c1ccccc1)C3CO (stereo not drawn) [Compound 7] | 11.98 ± 0.042 |  | 0.21 ± 0.008 |  |  |  |  |  | 57.05 |  |  |
